{"source": "patent US9388468B2", "about": "“Truncated CD20 protein, deltaCD20” (ETABLISSEMENT FRANCAIS DU SANG (EFS), priority 2008, dated 2016)", "tested_on": "RMAS-HHD cells", "assay": "T cytotoxic response (CTL) induction by peptide vaccination, 51Cr release specific lysis", "assay_type": "in vivo", "protocol": "The immunogenicity of the ΔCD20a peptides was evaluated by generating CTL on HLA-A2/DR1 and Knock-Out (KO) transgenic mice for H-2 class I and II.\nThe mice (4 per group) are immunised with pools of 2 or 3 peptides (2 injections at the base of the tail at an 8-day interval) with: 50 μg of each peptide, 100 μg of helper peptide (20 mers peptide from CMV-specific pp65), the whole co-emulsified with incomplete Freud adjuvant.\nSeven days after the second immunisation, the spleens of the mice are removed and the splenocytes are re-stimulated in vitro with 4 μg/ml of each peptide separately. On the fifth day of culture, the respondent populations are tested to determine specific cytotoxicity. The cells, with conclusive cytotoxicity, are re-stimulated in vitro at one-week intervals to obtain specific CTLs.\nRMAS-HHD cells are used as targets to study cytotoxicity. These target cells are filled with 10 μg/ml of the peptide under test, or a non-relevant control peptide, at 37° C. for 90 minutes and labelled with 100 μCi of 51Cr for 90 minutes, and washed three times. […] After incubation, 50 μl of supernatant is collected, transferred into specific plates (Lumaplate) and the radioactivity is measured in a γ counter. The specific lysis percentage is calculated using the formula: [(experimental 51 Cr release−spontaneous 51 Cr release)/(maximum 51 Cr release−spontaneous 51 Cr release)]×100.", "data": [{"substance": "peptide No. 4: ΔCD20-specific peptide overlapping the alternative splicing junction zone, restricted for HLA-A*0201; probably SEQ ID NO: 9 (RMSSLELVI)", "values": [{"measurement": "mice that developed T cytotoxic response against the peptide", "setting": "immunisation group A, 4 mice per group, 2 injections of 50 μg of each peptide, splenocytes re-stimulated in vitro", "value": "Three out of 4"}, {"measurement": "CTLs generated by immunisation killing peptide-charged RMAS-HHD targets", "setting": "targets charged with 10 μg/ml peptide, not cells charged with non-relevant peptide", "value": "generates CTLs killing RMAS-HHD targets charged with said peptide"}]}]}
